# Experimental data as given in patent US6846674B2, “Genetically modified fibroblast cells” (Deutsche Krebsforschungszentrum Stiftung des Offentlichen …, priority 2000, dated 2005).
# “Also recorded” adds a separate entry of the source.
# Columns and labels:
# [1] = tested on: primary human keratinocytes; assay: 2D coculture of c-jun −/− c-JunER™ fibroblasts with primary human keratinocytes; assay type: cell-based; details: 100 nM every 12 hours, three days, immunofluorescence
# Excerpt: The corresponding controls remained untreated.
# [2] = tested on: keratinocytes (epithelial formation and differentiation); assay: organotypical cultures with c-jun −/− fibroblasts, application of cytokines; assay type: cell-based, human; details: for phenotype obtained in organotypical cultures with c-jun −/−: FIG. 6
# Protocol: Type 1 collagen was prepared from rat tail tendons and provided at a concentration of 4 mg/ml in 0.1% acetic acid as rdady-to-use solution (Smola et al., 1993). The collagen gels used consisted of 80% by volume of 4 mg/ml collagen in 0.1% acetic acid, 10% by volume Hank's salt solution (concentrated tenfold) and 10% by volume FCS with or without cells (2×10^5 cells/ml). The liquid collagen was admixed with Hank's solution on ice and neutralized with 5 M NaOH with stirring (trypsinated cells taken up in FCS can then be added to the collagen solution by stirring). The gel solution was poured into cell culture dishes or 2.5 ml each into filter inserts (3 μm pore size, Becton Dickinson, Heidelberg, Germany) and allowed to stay in an incubator to form a gel for 1 hour. Sterile glass rings having an internal diameter of 18 mm (1.5 mm wall thickness, 12 mm height) were placed onto the gels and slightly pressed thereon. Following 1 h in the incubator, the collagen gels were equilibrated in DMEM with 10% FCS. After 24 h, the medium was withdrawn from the glass rings and 1 ml keratinocyte suspension (9×10^5 cells/ml FAD) each were seeded into the glass ring interior. After 24 h of incubation, the medium was removed from the keratinocytes so as to expose the cells to air. This time was defined as day 0 of the organotypcial cultures. DMEM having 10% FCS was exchanged every other day, the medium level in this case bordering on the top gel rim. For histological or immunohistochemical processing, the cultures were fixed or frozen. In order to detect proliferating cells in a culture by immunohistochemical methods, the cultures BrdU (Sigma) were added to the medium at a concentration of 65 μM 12 h prior to fixing.
# 2D cocultures on plastic dishes or glass slides or in 3D form as organotypical cultures were incubated in corresponding standard medium for 24 h. Thereafter, medium enriched with cytokines was added and the cultures were incubated therewith depending on the experiment for several hours or days, the medium being changed with factor added every other day. Supplier of the growth factors and antibodies: KGF (BTS, St. Leon, Germany); anti-GM-CSF, polyclonal, neutralizing (R&D-Systems, Wiesbaden, Germany); GM-CSF (Boehringer Mannheim, Germany) and anti-KGF, monoclonal, neutralizing (R&D-Systems).
# In the case of monolayer cultures of adherent cells, the medium was withdrawn from the cells and the cells were fixed on the glass slides in 80% methanol for 5 min. and 100% acetone for 3 min. The slides were then dried and stored at −40° C. For the production of paraffin preparations, organotypical cocultures or skin biopsies wee fixed in 3.5% formaldehyde (in PBS+) for at least 24 h, and initially embedded in agar and then in paraffin (Medim, Vogel company, GieβSen, Germany). The preparations were cut into 2 μm sections which were stained histologically with hematoxylin (15 min.) and eosin (5 min.). Following deparaffinization it was also possible to use the paraffin sections for immunohistochemical analyses. For the production of frozen preparations, skin samples or organotypical cocultures were frozen on cork platelets in embedding gel (“Tissue Teck”, O.C.T., Frankfurt, Germany) on liquid nitrogen. The preparations were stored at −80° C. 5-μm sections were prepared using a freezing microtome, placed onto silanized slides and used for immunohistochemical analyses.
# Paraffin sections were deparaffinized in a descending alcohol series and rinsed in PBS. Thereafter, the epitopes on the tissue sections were made accessible by boiling the sections in “Tuf” solution for 5 min. (Advanced Biotechnologies, Hamburg, Germany) and 0.1% trypsin at 37° C. or microwave treatment in 0.1 M citrate buffer for 30 min. Freeze sections were fixed in 80% methanol for 5 min., then in acetone for 2 min. For detecting the incorporation of BrdU (proliferation assay), the sections were incubated in 1.5 M HCI for 10 min. to denature the DNA strands. […]
"transglutaminase, filaggrin and loricrin expression ([2]; c-jun −/− fibroblasts)",Molecule,enhanced expression of the differentiation marker K1/K10 [1],phenotype obtained in organotypical cultures with c-jun −/− [2],K1/K10 expression ([2]; c-jun −/− fibroblasts),differentiation status of the epithelium ([2]; c-jun −/− fibroblasts),epithelial formation ([2]; c-jun −/− fibroblasts),loricrin expression (timing) ([2]; c-jun −/− fibroblasts),"granular layer and expression of the differentiation markers filaggrin and loricrin ([2]; c-jun −/− fibroblasts, histology)"
,CC/C(=C(\c1ccc(O)cc1)c1ccc(OCCN(C)C)cc1)c1ccccc1 [4-OH-tamoxifen],can be eliminated again,,,,,,
expressed enhancedly,"GM-CSF: cytokine GM-CSF (Boehringer Mannheim, Germany)",,can partially be reversed,expressed late,does not correspond to the normal condition,eliminates the reduced epithelial formation; also recorded: effects an enhanced epithelial formation,expressed prematurely,
,"KGF: cytokine / growth factor KGF (BTS, St. Leon, Germany) (protein, UniProt P21781 32-194, looked up) Fibroblast growth factor 7: CNDMTPEQMATNVNCSSPERHTRSYDYMEGGDIRVRRLFCRTQWYLRIDKRGKVKGTQEMKNNYNIMEIRTVAVGIVAIKGVESEFYLAMNKEGKLYAKKECNEDCNFKELILENHYNTYASAKWTHNGGEMFVALNQKGIPVRGKKTKKEQKTAHFLPMAIT",,can partially be reversed,,the full differentiation status is not restored,eliminates the reduced epithelial formation,,lack
